Source: patent US8067638B2, “Amide derivative and insecticide containing the same” (Mitsui Chemicals, Inc., priority 2005, dated 2011)

Tests used:
[1] = tested on: Common Cutworm (Spodoptera litura); assay: Insecticidal test on common cutworm (Spodoptera litura); type: in vivo; settings: 144 h, cabbage leaf immersed, second-instar larvae, counted 6 days after release, 25° C.
Method: Insecticidal Test on Common Cutworm (Spodoptera litura)
(§1) A piece of cabbage leaf was immersed for 30 seconds in a liquid chemical prepared by diluting a test compound to a prescribed concentration. After air-drying, the piece was put into a 7-cm polyethylene cup and second-instar larvae of common cutworms were released thereinto. The polyethylene cups were set in an isothermal chamber thermostated at 25° C. From the release 6 days later, the dead and alive were counted. The test was carried out with two replications of 5 insects per a plot.

[2] = tested on: Diamondback Moth (Plutella xylostella); assay: Insecticidal test on diamondback moth (Plutella xylostella); type: in vivo; settings: 144 h, cabbage leaf immersed, second-instar larvae, counted 6 days after release, 25° C.
Method: Insecticidal Test on Diamondback Moth (Plutella xylostella)
as §1, with “diamondback moths” for “common cutworms”

| SMILES | mortality at 100 ppm [1] | mortality at 100 ppm [2] |
| --- | --- | --- |
| Cc1cc(C(F)(C(F)(F)F)C(F)(F)F)cc(C)c1NC(=O)c1cccc(Nc2ccc([N+](=O)[O-])cc2)c1 [Compound No. 5-9, N-[2,6-dimethyl-4-(heptafluoroisopropyl)phenyl]-3-(4-nitrophenylamino)-benzamide] | ≥ 70% | ≥ 70% |
| Cc1cc(OS(=O)(=O)C(F)(F)F)cc(Br)c1NC(=O)c1cccc(NC(=O)c2ccccc2)c1 [Compound No. 1-369, N-(2-bromo-6-methyl-4-trifluoromethanesulfonyloxyphenyl) 3-(benzoylamino)benzamide] | ≥ 70% | ≥ 70% |
| O=C(Nc1cccc(C(=O)Nc2ccc(OC(C(F)(F)F)C(F)(F)F)nc2Br)c1)c1ccccc1 [Compound No. 1-387, N-[2-bromo-6-(2,2,2-trifluoro-1-trifluoromethylethoxy)-pyridin-3-yl]3-(benzoylamino)benzamide] | ≥ 70% | ≥ 70% |
| O=C(Nc1c(Br)cc(OC(F)(F)C(F)C(F)(F)F)cc1Br)c1cccc(NC(=O)c2ccccc2F)c1 (stereo not drawn) [Compound No. 2-8, N-(2,6-dibromo-4-(1,1,2,3,3,3-hexafluoropropoxy)phenyl) 3-[(2-fluorobenzoyl)amino]benzamide] | ≥ 70% | ≥ 70% |
| O=C(Nc1cccc(C(=O)Nc2ccc3ncsc3c2)c1)c1ccccc1 [Compound No. 1-492, N-benzothiazol-6-yl 3-(benzoylamino)benzamide] | ≥ 70% | – |
